Measurements taken from patent US5541168A, “Substituted 2-(phosphinyloxymethyl)-1,2,5-thiadiazolidin-3-one 1,1-dioxides and compositions and method of use thereof” (Sterling Winthrop Inc., priority 1994, dated 1996).
Like-named read-outs stand apart in the source and are kept apart here.

Target: T1, human leukocyte elastase (Homo sapiens, UniProt P08246)
T1 sequence (P08246 30-247 limits assumed): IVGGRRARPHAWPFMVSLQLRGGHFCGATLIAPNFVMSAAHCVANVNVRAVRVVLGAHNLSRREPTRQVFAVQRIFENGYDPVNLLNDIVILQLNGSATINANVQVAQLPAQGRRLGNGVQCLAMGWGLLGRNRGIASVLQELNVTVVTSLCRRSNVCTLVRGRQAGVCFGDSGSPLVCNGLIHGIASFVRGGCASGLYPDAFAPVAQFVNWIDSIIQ
Test: human leukocyte elastase inhibitory activity (MeOSuc-Ala-Ala-Pro-Val-pNA substrate, absorbance progress curves)
Assay type: biochemical
Protocol: The test compound (inhibitor) is dissolved in DMSO in a vial to produce an inhibitor stock solution which has a concentration in the range of 200-1000 μM. The inhibitor stock solution is diluted (1:4, 1:16 and 1:64) into assay vials (vials 1, 2 and 3 respectively) containing 2.4 mL of buffer solution (50 mM N-[2-hydroxyethyl]piperazine-N'-[2-ethanesulfonic acid]/NaOH, 500 mM NaCl, pH 7.8 at 25° C.) and DMSO is added so that the total volume in each vial is 3.2 mL. 70 μL, 50 μL, 35 μL and 25 μL of inhibitor from assay vial 1 is placed into the first four wells of a 96-well microtiter plate and each well is made up to 90 μL total volume with the addition of a 25% DMSO/buffer solution. The inhibitor from assay vials 2 and 3 is processed in a similar manner and placed in wells 5-12 respectively to afford a total of 12 different inhibitor concentrations. Four wells (wells 13-16) containing 90 μL of the 25% DMSO/buffer solution but no inhibitor are also run simultaneously with the inhibited wells as a control. 150 μL of substrate solution (prepared by the addition of 500 μL of the human leukocyte elastase (HLE) substrate MeOSuc-Ala-Ala-Pro-Val-pNA (18.7 mM in DMSO) to 19.5 mL of buffer solution) is then added simultaneously into each of the 16 wells and the solution in each well was thoroughly mixed.
The 96-well microtiter plate is placed into a Microplate Reader #89815A spectrophotometer and 110 μL of the enzyme solution (prepared as follows: a mixture of 20 mL of buffer solution and 20 mg of bovine serum albumen is gently vortexed in a scintillation vial and 5 μL HLE stock solution (1 mg/mL dissolved in deionized water) is added) is added simultaneously to each of the 16 wells. Each of the solutions in the wells is throughly mixed and then the time-dependent absorbance data is collected at an absorbance of 410 nm until the assay is complete. It should be noted that although this assay method can be done manually, it is preferred to perform the assay robotically using a Hewlett Packard MicroAssay System Robot.
A plot of the absorbance versus time data thus obtained affords progress curves the final slope of which is equal to the final steady-state velocities (VF). Using the program ENZFITTER (Elsevier software), the progress curves for the four control assays ([I]=0) are fit by linear regression to yield the enzyme reaction velocity values in the absences of inhibitor (Vo) which are averaged to produce a single fixed value. The inhibition constant Ki (nM) is then obtained from a plot of [formula] which affords a linear plot wherein: [formula] and [S] is the concentration of the substrate and Km is the Michaelis constant.
Table V summarizes the results obtained from the testing of representative compounds of the invention for human leukocyte elastase inhibitory activity.

Ki (human leukocyte elastase, substrate MeOSuc-Ala-Ala-Pro-Val-pNA, pH 7.8, 25° C. buffer, read-out: Ki)	Compound	Ki
	CCCC1C(=O)N(COP(=O)(OCC)OCC)S(=O)(=O)N1C (centres unmarked) [1(i), 2-(diethoxyphosphinyloxymethyl)-4-propyl-5-methyl-1,2,5-thiadiazolidin-3-one 1,1-dioxide]	2 nM
1.5 nM	CC(C)CCC1C(=O)N(COP(=O)(OCc2ccccc2)OCc2ccccc2)S(=O)(=O)N1C (centres unmarked) [4(j), 2-(dibenzyloxyphosphinyloxymethyl)-4-(3-methylbutyl)-5-methyl-1,2,5-thiadiazolidin-3-one 1,1-dioxide]	
	CCOP(=O)(OCC)OCN1C(=O)C(C(C)C)N(C)S1(=O)=O (centres unmarked) [2(i), 2-(diethoxyphosphinyloxymethyl)-4-isopropyl-5-methyl-1,2,5-thiadiazolidin-3-one 1,1-dioxide]	680 nM
	CCCC1NS(=O)(=O)N(COP(=O)(OCC)OCC)C1=O (centres unmarked) [3(f), 2-(diethoxyphosphinyloxymethyl)-4-propyl-1,2,5-thiadiazolidin-3-one 1,1-dioxide]	25 nM
	CCOP(=O)(OCC)OCN1C(=O)C2CCCCN2S1(=O)=O (centres unmarked) [17(f), 2-(diethoxyphosphinyloxymethyl)-1,2,5-thiadiazolo[2,3-a]3,3a,4,5,6,7-hexahydropyridine-3-one 1,1-dioxide]	500 nM
